Measurements: patent publication US6794560B2, “Nucleic acid encoding GAI gene of Arabidopsis thaliana” (Pioneer Hi-Bred International, Inc., priority 1996, dated 2004)

Legend:
[1] = tested on: stimulation of cell elongation, leaf senescence or elicitation of the cereal aleurone α-amylase response; details: structure-activity statement; cited from earlier work
gai mutants = details: cited from earlier work
gai-t6 mutant = assay: growth on medium containing paclobutrazol; type: in vivo, Arabidopsis thaliana; details: grown on medium containing paclobutrazol
From the text: The slender mutants of pea and barley are resistant to the dwarfing effects of paclobutrazol^38-42, as is the Arabidopsis constitutive GA-response mutant spy^43,44. Thus, in these mutants stem elongation is at least partially uncoupled from the GA-mediated control characteristic of normal plants. […] Put another way, a GAI null mutant appears to require less endogenous GA to achieve a certain degree of growth than does a normal plant. GA-dependency is not completely abolished by gai-t6 possibly because the products of genes related in sequence to GAI (see above) can substantially, but not completely, compensate for loss of GAI function.

kaurene oxidase reaction = molecular target: T1, kaurene oxidase reaction (Arabidopsis thaliana, UniProt Q93ZB2); details: cited from earlier work
T1 sequence (Q93ZB2 1-509): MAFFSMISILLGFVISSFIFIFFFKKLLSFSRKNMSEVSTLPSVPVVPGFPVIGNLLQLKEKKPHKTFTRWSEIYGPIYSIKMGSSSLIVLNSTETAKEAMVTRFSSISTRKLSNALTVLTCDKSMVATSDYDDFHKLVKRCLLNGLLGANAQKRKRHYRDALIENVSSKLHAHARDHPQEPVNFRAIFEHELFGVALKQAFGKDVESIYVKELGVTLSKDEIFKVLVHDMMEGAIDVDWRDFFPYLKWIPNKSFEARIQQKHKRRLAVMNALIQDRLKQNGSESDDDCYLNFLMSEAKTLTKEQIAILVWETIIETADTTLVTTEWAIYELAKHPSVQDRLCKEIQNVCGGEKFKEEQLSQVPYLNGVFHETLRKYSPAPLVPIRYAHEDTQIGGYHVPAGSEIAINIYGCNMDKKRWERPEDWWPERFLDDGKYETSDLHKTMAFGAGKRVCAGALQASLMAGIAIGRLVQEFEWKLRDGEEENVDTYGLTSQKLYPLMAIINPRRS

plants = details: reduces endogenous GA levels; cited from earlier work

Compound	biological activity of gibberellin [1]	response of gai mutants to GA treatment (gai mutants)	also measured
C=C1C[C@]23C[C@H]1CC[C@H]2[C@@]12C=C[C@H](O)[C@@](C)(C(=O)O1)[C@H]2[C@@H]3C(=O)O [GA7]	high biological activity		
C=C1C[C@]23C[C@H]1CC[C@H]2[C@@]12C[C@H](O)[C@H](O)[C@@](C)(C(=O)O1)[C@H]2[C@@H]3C(=O)O [GA34]	inactivity		
C=C1C[C@]23C[C@@]1(O)CC[C@H]2[C@@]12C=C[C@H](O)[C@@](C)(C(=O)O1)[C@H]2[C@@H]3C(=O)O [GA3]		do not respond	
C=C1C[C@]23C[C@@]1(O)CC[C@H]2[C@@]12C[C@H](O)[C@H](O)[C@@](C)(C(=O)O1)[C@H]2[C@@H]3C(=O)O [GA8]	inactivity		
C=C1C[C@]23C[C@H]1CC[C@H]2[C@@]12CC[C@H](O)[C@@](C)(C(=O)O1)[C@H]2[C@@H]3C(=O)O [GA4]	high biological activity	do not respond	
C=C1C[C@]23C[C@@]1(O)CC[C@H]2[C@@]12CC[C@H](O)[C@@](C)(C(=O)O1)[C@H]2[C@@H]3C(=O)O [GA1]	high biological activity	do not respond	
CC(C)(C)[C@@H](O)[C@@H](Cc1ccc(Cl)cc1)n1cncn1 (racemic) [Paclobutrazol]			floral bolt stem length of gai-t6 mutants vs GAI control plants (gai-t6 mutant): longer floral bolt stems than GAI control plants; inhibition of GA biosynthesis (kaurene oxidase reaction): specifically inhibits GA biosynthesis; phenotype of plants exposed (plants): conferring a dwarf phenotype
C=C1C[C@]23C[C@H]1CC[C@H]2[C@@]12C[C@H](O)C[C@@](C)(C(=O)O1)[C@H]2[C@@H]3C(=O)O [GA51]	inactivity		
C=C1C[C@]23C[C@@]1(O)CC[C@H]2[C@@]12C[C@H](O)C[C@@](C)(C(=O)O1)[C@H]2[C@@H]3C(=O)O [GA29]	inactivity		
